Laboratory results taken from article PMC8429170, “Ligand-binding and -scavenging of the chemerin receptor GPR1” (Cellular and Molecular Life Sciences: CMLS, 2021).
Ends that are not written are not given here. Peptide text beside a SMILES is read from it.

T1: GPR1-eYFP (human) (UniProt P46091)
T1 sequence: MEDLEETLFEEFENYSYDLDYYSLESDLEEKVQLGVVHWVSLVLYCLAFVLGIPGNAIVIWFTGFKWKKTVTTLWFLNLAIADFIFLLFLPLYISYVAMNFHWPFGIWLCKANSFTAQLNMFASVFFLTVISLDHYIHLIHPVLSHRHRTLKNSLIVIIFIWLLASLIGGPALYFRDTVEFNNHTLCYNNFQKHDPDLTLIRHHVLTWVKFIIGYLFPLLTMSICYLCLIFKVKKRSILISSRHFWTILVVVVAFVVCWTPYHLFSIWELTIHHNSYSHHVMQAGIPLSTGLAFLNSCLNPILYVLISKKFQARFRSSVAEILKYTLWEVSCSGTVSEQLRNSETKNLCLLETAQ


Assays:
GPR1 = target: T2, GPR1 (Homo sapiens, UniProt P46091); test: cell-based; conditions: for Emax: COS-7
T2 construct: expressed in transfected cells; host or cells: COS-7, transient
Method: Arrestin recruitment was characterized by measuring the bioluminescence resonance energy transfer (BRET) ratio between luciferase-tagged arrestin3 and either GPR1-eYFP or CMKLR1-eYFP as described previously. In brief, COS-7 cells in 75 cm^2 cell culture flasks were transiently transfected overnight with 7800 ng GPR1-eYFP or CMKLR1-eYFP in pVitro2 and 200 ng Rluc8-Arr3 in pcDNA3 using MetafectenePro according to the manufacturer’s protocol. […] For kinetic measurements, cells were stimulated with agonist in buffer or buffer alone, and fluorescence was measured for 20 min using a Tecan Infinite M 200 Reader (Tecan, Männerdorf, Switzerland) using the filter sets Green1 (YFP emission, luminescence 520–570 nm) and Blue1 (luciferase luminescence 370–480 nm). For concentration–response curves, cells were stimulated with agonist or blank, and luminescence was measured after 10 min. BRET signal was calculated as the ratio of fluorescence divided by luminescence, netBRET signal was calculated by subtracting the BRET signal of unstimulated wells from the respective samples.

GPR1-eYFP (human) = target: T1, GPR1-eYFP (human)

T2 sequence (P32120 whole entry partner, one chain of several): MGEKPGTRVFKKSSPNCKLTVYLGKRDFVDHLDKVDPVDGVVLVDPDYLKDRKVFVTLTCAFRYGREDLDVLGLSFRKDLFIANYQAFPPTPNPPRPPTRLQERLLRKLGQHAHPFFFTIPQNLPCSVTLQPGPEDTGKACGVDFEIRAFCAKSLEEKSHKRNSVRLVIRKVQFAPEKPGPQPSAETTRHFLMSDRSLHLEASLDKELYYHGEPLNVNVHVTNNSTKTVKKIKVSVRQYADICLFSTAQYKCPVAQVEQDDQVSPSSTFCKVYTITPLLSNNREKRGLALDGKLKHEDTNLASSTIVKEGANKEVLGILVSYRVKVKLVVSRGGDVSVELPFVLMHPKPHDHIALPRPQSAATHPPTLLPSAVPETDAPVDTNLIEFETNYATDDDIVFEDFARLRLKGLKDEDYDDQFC

Molecule	EC50 (GPR1) [nM]	Emax (GPR1) [%]	EC50 of arrestin3 recruitment to GPR1-eYFP (BRET with Rluc8-Arr3, COS-7 cells) (GPR1-eYFP (human)) [nM]
QRAGEDPHSFYFPGQFAF [Chem^139−156]	2.95	99 ± 9	–
C[C@@H]1NC(=O)[C@H](Cc2ccccc2)NC(=O)[C@H](CCC(N)=O)NC(=O)[C@H](NC(=O)[C@@H]2CCCN2C(=O)[C@H](Cc2ccccc2)NC(=O)[C@@H](N)Cc2ccc(O)cc2)CCSSC[C@@H](C(=O)O)NC(=O)[C@H](Cc2ccccc2)NC1=O [[4-9]-c(chemerin-9)] (HELM PEPTIDE1{Y.F.P.[O=C([C@@H](CCS[*:3])N[*:1])[*:2]].Q.F.A.F.C}$PEPTIDE1,PEPTIDE1,4:R3-9:R3$$$V2.0)	3.3	–	–
FPGQFAFS [Chem^150−157]	22.4	87 ± 8	–
QRAGEDPHSFYFPGQFAFS [Chem^139−157]	3.09	94 ± 7	–
YFPGQFAF [Chem^149−156]	3.98	110 ± 16	–
Chem^149-155 (chemerin-7) (peptide)	–	–	> 1000
QRAGEDPHSFYFPGQFAF [Chem^139-156]	–	–	2.9
QFYSFFPAG [scr2C9]	–	–	> 1000
PGQFAFS [Chem^151-157]	–	–	> 1000
YFPGQFAF [Chem^149-156]	–	–	4
FPGQFAFS [Chem^150-157]	–	–	22
QRAGEDPHSFYFPGQFAFS [Chem^139-157]	–	–	3.1
